The values that follow come from EP1074259A1, “PREVENTIVES FOR ALCOHOLIC GASTRITIS” (CHUGAI SEIYAKU KABUSHIKI KAISHA, priority 1998, dated 1999).

This test has as its system ethanol-induced gastric mucosal injury. As to the kind of experiment: Prevention of 99.5% ethanol-induced gastric mucosal injury in rats. The following applies: for Mucosal injury suppression rate (%): 1 h before 99.5% ethanol 1 ml/animal, n = 10/group. In kind it is in vivo. How it is done: Rats were forced to abstain from food and water for 24 hours, and used as experimental subjects. […] When the two drugs were combined, the dose of the combination treatment was set such that the proportion of sucralfate was 1/3 of the dose, and the proportion of famotidine was 2/3 of the dose, or vice versa (i.e., the proportion of sucralfate was 2/3 of the dose, and the proportion of famotidine was 1/3 of the dose). For each of the individual treatments and the combination treatments, a high dose group, a medium dose group, and a low dose group were provided by setting a high dose, a medium dose, and a low dose at a ratio of 9:3:1. Each dose level of the drug was suspended in a 2% aqueous solution of acacia. The suspension was orally administered in a volume of 2 ml/kg body weight, while only the solvent was administered in the same volume for a control group. […] One hour after administration of the test drug, 99.5% ethanol in an amount of 1 ml/animal was administered orally. One hour later, the animal subjects were sacrificed and the stomach removed, treated, and measured for the extent of injuries occurring in the gastric mucosa. The total amount of injuries occurring In the respective animals was calculated to determine the ED50 values for the preventive effect of the test drug on gastric mucosal injury. […]

Turning to sucralfate, the “50% preventive dose ED50 (mg/kg)” value (drug administered alone, P.O., rats) is given as “Sucralfate 21.4 mg/kg”. The “Mucosal injury suppression rate (%)” value (sucralfate alone 10 mg/kg P.O.) is recorded as 19%, the “Mucosal injury suppression rate (%)” value (sucralfate alone 30 mg/kg P.O.) was 69% and the “Mucosal injury suppression rate (%)” value (sucralfate alone 90 mg/kg P.O.) was 92%.
On to `NC(N)=Nc1nc(CSCCC(N)=NS(N)(=O)=O)cs1` [Famotidine, famotidine], for which the ED50 (Rattus norvegicus, po, drug administered alone, P.O., rats, read-out: 50% preventive dose ED50) was 46.3 mg/kg. In addition, the “Mucosal injury suppression rate (%)” value is, setting by setting: (famotidine alone 10 mg/kg P.O.) 13%; (famotidine alone 30 mg/kg P.O.) 42%; (famotidine alone 90 mg/kg P.O.) 66%.
